# According to paper PMC10331583, “Control of fibrosis with enhanced safety via asymmetric inhibition of prolyl‐tRNA synthetase 1” (EMBO Molecular Medicine, 2023):
# “And” between values parts separate entries of the source, which are not always exact repeats. Identical values can stand only once. Like-named read-outs stand apart in the source and are kept apart here.
# Experiments:
# [1] = system: TNT Quick Coupled Transcription/Translation System (luciferase synthesis); assay type: biochemical
# WI‐26 VA4 cells [2] = assay: Collagen ELISA (secreted pro‐collagen I)
# WI‐26 VA4 cells [3] = assay: Puromycin incorporation assay; assay type: cell-based, human
# Summary of the method: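 WI‐26 VA4 cell lysates prepared in carbonate-bicarbonate buffer with protease inhibitor; 400 ng protein coated on ELISA plates 18 h at 4°C. Puromycin incorporated into proteins detected by antibody ELISA, absorbance 450 nm with 620 nm reference; outlier values excluded based on replicates and adjacent concentrations.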
smiles,measurement,setting,value
"O=C(CC1NCCCC1O)Cn1cnc2cc(Br)c(Cl)cc2c1=O (stereo not shown) [HF, Halofuginone, reference compound]",TNT-luciferase LogIC50 (best-fit value),[1],2.211
same,"TNT-luciferase % of control, average",[1]; 6 nM,106.95 % of control
same,TNT-luciferase % of control,"[1]; 6 nM, 0.006 µM",109.98 % of control and 110.97 % of control and 123.24 % of control and 104.46 % of control and 101.11 % of control and 91.92 % of control
same,"TNT-luciferase % of control, average",[1]; 10 nM,114.54 % of control
same,TNT-luciferase % of control,"[1]; 10 nM, 0.01 µM",118.82 % of control and 112.93 % of control and 98.69 % of control and 124.51 % of control and 116.16 % of control
same,"TNT-luciferase % of control, average",[1]; 20 nM,104.66 % of control
same,TNT-luciferase % of control,"[1]; 20 nM, 0.02 µM",102.13 % of control and 100.65 % of control and 102.62 % of control and 110.31 % of control and 109.47 % of control and 102.79 % of control
same,"TNT-luciferase % of control, average",[1]; 36 nM,110.74 % of control
same,TNT-luciferase % of control,"[1]; 36 nM, 0.036 µM",113.42 % of control and 108.02 % of control and 129.62 % of control and 107.80 % of control and 102.79 % of control
same,"TNT-luciferase % of control, average",[1]; 60 nM,109.84 % of control
same,TNT-luciferase % of control,"[1]; 60 nM, 0.06 µM",112.44 % of control and 104.58 % of control and 103.60 % of control and 118.66 % of control and 113.65 % of control and 106.13 % of control
same,"TNT-luciferase % of control, average",[1]; 100 nM,95.21 % of control
same,TNT-luciferase % of control,"[1]; 100 nM, 0.1 µM",67.76 % of control and 70.21 % of control and 67.27 % of control and 122.01 % of control and 126.18 % of control and 117.83 % of control
same,"TNT-luciferase % of control, average",[1]; 200 nM,33.45 % of control
same,"TNT-luciferase % of control, average",[1]; 360 nM,4.01 % of control
same,"TNT-luciferase % of control, average",[1]; 600 nM,0.26 % of control
same,"TNT-luciferase % of control, average",[1]; 1000 nM,0.09 % of control
same,"TNT-luciferase % of control, average",[1]; 2000 nM,0.02 % of control
same,TNT-luciferase % of control,"[1]; 2000 nM, 2 µM",0.04 % of control
same,IC50,[1]; read-out: TNT-luciferase IC50 (best-fit value),163 nM
same,IC50,"WI‐26 VA4 cells [2]; Homo sapiens, WI26VA4, 72 h, read-out: IC50 for collagen level, TGF‐β 2 ng/ml, 72 h (Fig 1B)",15.2 nM
same,IC50,"WI‐26 VA4 cells [2]; Homo sapiens, WI26VA4, read-out: Collagen IC50 (best-fit value), log(inhibitor) vs. response, variable slope (four parameters) (converted)",15.2 nM
same,activity at 1 µM,"WI‐26 VA4 cells [2]; Homo sapiens, WI26VA4, read-out: Collagen, % of control (single replicates per experiment), 1000 nM",3.91%
same,activity at 0.0003 µM,"WI‐26 VA4 cells [2]; Homo sapiens, WI26VA4, read-out: Collagen, % of control, average, 0.3 nM, average",96.4%
same,activity at 0.001 µM,"WI‐26 VA4 cells [2]; Homo sapiens, WI26VA4, read-out: Collagen, % of control, average, 1 nM, average",103%
same,activity at 0.003 µM,"WI‐26 VA4 cells [2]; Homo sapiens, WI26VA4, read-out: Collagen, % of control, average, 3 nM, average",101%
same,activity at 0.01 µM,"WI‐26 VA4 cells [2]; Homo sapiens, WI26VA4, read-out: Collagen, % of control, average, 10 nM, average",71.9%
same,activity at 0.03 µM,"WI‐26 VA4 cells [2]; Homo sapiens, WI26VA4, read-out: Collagen, % of control, average, 30 nM, average",21.6%
same,activity at 0.1 µM,"WI‐26 VA4 cells [2]; Homo sapiens, WI26VA4, read-out: Collagen, % of control, average, 100 nM, average",3.57%
same,activity at 0.3 µM,"WI‐26 VA4 cells [2]; Homo sapiens, WI26VA4, read-out: Collagen, % of control, average, 300 nM, average",2.57%
same,activity at 1 µM,"WI‐26 VA4 cells [2]; Homo sapiens, WI26VA4, read-out: Collagen, % of control, average, 1000 nM, average",3.27%
same,activity at 0.0003 µM,"WI‐26 VA4 cells [2]; Homo sapiens, WI26VA4, read-out: Efficacy, % of control, average, 0.3 nM",104%
same,activity at 0.001 µM,"WI‐26 VA4 cells [2]; Homo sapiens, WI26VA4, read-out: Efficacy, % of control, average, 1 nM",104%
same,activity at 0.003 µM,"WI‐26 VA4 cells [2]; Homo sapiens, WI26VA4, read-out: Efficacy, % of control, average, 3 nM",108%
same,activity at 0.01 µM,"WI‐26 VA4 cells [2]; Homo sapiens, WI26VA4, read-out: Efficacy, % of control, average, 10 nM",73%
same,activity at 0.03 µM,"WI‐26 VA4 cells [2]; Homo sapiens, WI26VA4, read-out: Efficacy, % of control, average, 30 nM",24.9%
same,activity at 0.1 µM,"WI‐26 VA4 cells [2]; Homo sapiens, WI26VA4, read-out: Efficacy, % of control, average, 100 nM",3.73%
same,activity at 0.3 µM,"WI‐26 VA4 cells [2]; Homo sapiens, WI26VA4, read-out: Efficacy, % of control, average, 300 nM",2.78%
same,activity at 1 µM,"WI‐26 VA4 cells [2]; Homo sapiens, WI26VA4, read-out: Efficacy, % of control, average, 1000 nM",2.54%
same,activity at 0.0003 µM,"WI‐26 VA4 cells [2]; Homo sapiens, WI26VA4, read-out: Efficacy, % of control, single replicate, 0.3 nM",114%
same,activity at 0.001 µM,"WI‐26 VA4 cells [2]; Homo sapiens, WI26VA4, read-out: Efficacy, % of control, single replicate, 1 nM",112%
same,activity at 1 µM,"WI‐26 VA4 cells [2]; Homo sapiens, WI26VA4, read-out: Efficacy, % of control, single replicate, 1000 nM",2.31%
same,Collagen HillSlope (best-fit value),"WI‐26 VA4 cells [2]; log(inhibitor) vs. response, variable slope (four parameters)",-2.183
same,Collagen LogIC50 (best-fit value),"WI‐26 VA4 cells [2]; log(inhibitor) vs. response, variable slope (four parameters), concentration in nM",1.183
same,IC50,"WI‐26 VA4 cells [2]; read-out: IC50 for collagen level, TGF‐β 2 ng/ml, 72 h (Fig 1B)",15 nM
same,"Puromycin, % of control, single replicate","WI‐26 VA4 cells [3]; 3 nM, 0.003 µM",87.66 % of control and 110.89 % of control and 102.72 % of control and 101.10 % of control and 86.71 % of control and 84.36 % of control and 98.41 % of control and 95.09 % of control and 95.08 % of control and 108.41 % of control and 105.39 % of control and 104.60 % of control
same,"Puromycin, % of control, single replicate","WI‐26 VA4 cells [3]; 10 nM, 0.01 µM",100.34 % of control and 96.77 % of control and 97.76 % of control and 87.44 % of control and 83.58 % of control and 96.23 % of control and 94.53 % of control
same,"Puromycin, % of control, single replicate","WI‐26 VA4 cells [3]; 30 nM, 0.03 µM",113.27 % of control and 109.87 % of control and 110.26 % of control and 116.66 % of control and 114.17 % of control and 107.05 % of control and 108.24 % of control and 108.11 % of control and 111.56 % of control and 111.23 % of control and 110.22 % of control
same,"Puromycin, % of control, single replicate","WI‐26 VA4 cells [3]; 100 nM, 0.1 µM",90.48 % of control and 92.59 % of control and 92.61 % of control and 84.84 % of control and 84.75 % of control and 85.14 % of control and 85.25 % of control and 85.34 % of control and 84.22 % of control
